Laboratory results taken from patent publication US20180071284A1, “PREVENTING OR TREATING VIRAL INFECTION BY INHIBITION OF THE HISTONE METHYLTRANSFERASE EZH1 OR EZH2” (The United States of America, as represented by the …, priority 2015, published 2018).
Entries after “also recorded” stand apart in the source; their conditions may differ.

What was measured:
Assay type in all cases: cell-based, herpes simplex virus 1 (HSV-1)
[1] = tested on: HSV-1; assay: UL29+ single neurons and neuron clusters in explanted trigeminal ganglia; conditions: explant 48-hrs; compound 1 35 μM, compound 4 30 μM, ACV 100 μM, ML324 50 μM
Excerpt: (§1) Trigeminal ganglia were fixed in paraformaldehyde and tissue sections were contained with anti-UL29 and DAPI. The HSV E gene UL29 (DNA single strand binding replication protein) was used a marker for viral reactivation. Tissue sections were scored for UL29+ cell clusters (clusters indicate viral spread from the primary neuron to surrounding cells) and for individual neurons representing the primary reactivation event (single) (FIGS. 18 and 19).
as §1, with “costained” for “contained”, “(FIG. 25).” for “(FIGS. 18 and 19).”

[2] = tested on: HSV-1; assay: HSV-1 cellular and nuclear entry (viral DNA in total and nuclear fractions of HFF cells); conditions: compound 1 35 μM, compound 4 30 μM, 5-hrs pretreatment, HSV-1 2.0 PFU per cell 1.5-hrs
Method: HFF cells were treated with the EZH1/2 catalytic inhibitor compound 1 (35 μM), compound 4 (30 μM), or DMSO (vehicle) for 5-hrs. The HFF cells were then infected with HSV-1 (2.0 PFU per cell) for 1.5-hrs in the presence of the inhibitors or DMSO (vehicle). The levels of HSV viral DNA isolated from total and nuclear cellular fractions are expressed as ratios relative to DMSO (vehicle).

[3] = tested on: HSV-1; assay: Spread of HSV infection in HFF cells (UL29 staining); conditions: HSV-1 MOI 0.01 for 8.5-hrs, then treated for 12.5-hrs (30 μM)
Method: HFF cells were mock or infected with HSV-1 (MOI 0.01) for 8.5-hrs to allow one round of the viral replication program. The HFF cells were then treated with EZH1/2 inhibitor (compound 1 or compound 4 at 30 μM), viral DNA polymerase inhibitor (ACV at 100 μM), or JMJD3 inhibitor (ML324 at 50 μM) for an additional 12.5-hrs. Cells were paraformaldehyde fixed, permeabilized, and stained for the viral E gene UL29 and actin. The viral E protein UL29 was used as a marker for the spread of viral infection.
HFF cells were mock or infected with HSV-1 (MOI 0.01) for 8.5-hrs to allow one round of the viral replication program. HFF cells were then treated with EZH1/2 (compound 1, compound 4), viral DNA polymerase (ACV), or JMJD3 (ML324) inhibitors for additional 12.5-hrs. Cells were paraformaldehyde fixed, permeabilized, and stained for the viral E gene UL29 and actin (Phalloidin). The viral E protein UL29 was used as a marker for the spread of viral infection.

[4] = tested on: HSV-1; assay: HSV-1 viral IE mRNA levels in infected Vero (IFN-β null, IRF3 deficient) cells; conditions: 5-hrs pretreatment, HSV-1 2.0 PFU per cell
Method: HFF (wild-type) and Vero (IFN-β null, IRF3 deficient) cells were treated with the indicated concentration of EZH1/2 catalytic inhibitor (compound 1 or 4) or DMSO (vehicle) for 5-hrs. HFF and Vero cells were then infected with HSV-1 (2.0 PFU per cell) for 1.5-hrs in the presence of inhibitor or DMSO. The levels of HSV viral IE (ICP0, ICP4, ICP22, and ICP27) and cellular control (SP1 and TBP) mRNAs are expressed relative to cells treated with DMSO (vehicle).

[5] = tested on: HSV-1; assay: Mouse trigeminal ganglia explant reactivation model, viral yield titrated on Vero cells; conditions: explant 48-hrs; compound 1 35 μM, compound 3 30 μM, compound 4 30 μM
Method: Trigeminal ganglia from HSV-1 latently infected mice were bisected. Half were explanted in media with control DMSO (vehicle), and the other half were explanted in media with ACV (100 μM), ML324 (50 μM), compound 1 (35 μM), compound 3 (30 μM), or compound 4 (30 μM) for 48-hrs to induce viral reactivation. Viral yields were determined by titrating on Vero cells. Each point represents the titer of one explanted trigeminal ganglia.

[6] = tested on: HSV-1; assay: Removal of inhibitors prior to HSV-1 infection of HFF cells (mRNA levels); conditions: washed, then infected; for HSV IE expression after removal of compound prior to infection: 5-hrs treatment (compound 1 35 μM, 2 15 μM, 3 30 μM, 4 30 μM); for IL6 stimulation after removal of compound prior to infection: 5-hrs treatment
Method: HFF cells were treated with inhibitors targeting the catalytic SET domain (compound 1, 35 μM: EZH2; compound 2, 15 μM: EZH2 and EZH1; compound 4, 30 μM: EZH2), EED-EZH2 and EED-EZH1 (compound 3, 30 μM), or DMSO (control) for 5-hrs. Cells were then washed with phosphate buffered saline (PBS) and replaced with media with no inhibitors for the indicated time in FIGS. 21-24 prior to infection with HSV-1 (2.0 PFU per cell) for 1.5-hrs in the absence of inhibitors.

Structure (SMILES) | primary reactivation (UL29+ single neurons) [1] | secondary spread of HSV (UL29+ neuron clusters) [1] | HSV-1 viral entry (total and nuclear) [2] | spread of HSV infection to adjacent cells (UL29 marker) [3] | antiviral activity (HSV IE mRNA) in Vero cells as compared to HFF (wild-type) cells [4] | HSV reactivation from latency (viral yield per explanted trigeminal ganglia) [5] | HSV IE expression after removal of compound prior to infection [6] | IL6 stimulation after removal of compound prior to infection [6]
CN(C)CCCNC(=O)c1ccc(-c2cc(O)c3ncccc3c2)cc1 [ML324, N-(3-(dimethylamino)propyl)-4-(8-hydroxyquinolin-6-yl)benzamide] | reduced | reduced | – | – | – | – | – | –
CCCc1cc(C)[nH]c(=O)c1CNC(=O)c1cc(-c2ccnc(N3CCN(C)CC3)c2)cc2c1cnn2C(C)C [compound 1, GSK343] | reduced | reduced | no impact | block the spread of HSV to adjacent cells; also recorded: block the spread of HSV infection | lack of antiviral activity | block HSV reactivation from latency | recovery of HSV IE expression | decrease in IL6 stimulation
COc1ccc(CCN2CCC(Nc3nc4ccccc4n3Cc3ccc(F)cc3)CC2)cc1 [compound 3, astemizole] | – | – | – | – | – | block HSV reactivation from latency | recovery of HSV IE expression | –
CCCc1cc(C)[nH]c(=O)c1CNC(=O)c1cc(-c2ccc(N3CCN(C(C)C)CC3)nc2)cc2c1cnn2C(C)C [compound 2, UNC1999] | – | – | – | – | – | – | recovery of HSV IE expression | decrease in IL6 stimulation
Nc1nc2c(ncn2COCCO)c(=O)[nH]1 [ACV, Acyclovir] | reduced | – | – | – | – | – | – | –
